From ChEMBL document CHEMBL4739712, “Inhibitors of cyclin-dependent kinases” (2020) come the findings set out here.

Experiment [1] has as its target T1, Cyclin-dependent kinase 12/13 (Homo sapiens) (UniProt Q14004+Q9NYV4). The following applies: Jurkat, dose 500.0 nM, time 6.0 hrs.
Experiment [2] has as its target T1, Cyclin-dependent kinase 12/13 (Homo sapiens). The conditions noted are these: Jurkat, dose 25.0 nM, time 6.0 hrs.
The target is the same in experiment [3]. The following applies: Jurkat, dose 500.0 nM, time 4.0 hrs.

Each structure is given as a SMILES string. Active and inactive are the calls of the source. The rule behind the calls is not given here.

In the case of `CN(C)C/C=C/C(=O)NC1CCCC(C(=O)Nc2ncc(SCc3ncc(C(C)(C)C)o3)s2)C1` (stereo not given), in experiment [1], the inhibition result is “Active”.
In the case of `C=CC(=O)Nc1cccc(C(=O)N2CCCC(Nc3ncc(SCc4ncc(C(C)(C)C)o4)s3)C2)c1` (stereo not given), the inhibition result in experiment [2] was “inactive”. The inhibition entry in experiment [1] was “Active”.
In the case of `C=CC(=O)Nc1ccc(C(=O)N2CCC[C@@H](Nc3ncc(SCc4ncc(C(C)(C)C)o4)s3)C2)c(C)c1`, the inhibition result in experiment [3] is “Active”.
As to `C=CC(=O)Nc1ccc(OC(=O)N2CCC[C@@H](Nc3ncc(SCc4ncc(C(C)(C)C)o4)s3)C2)cc1`, in experiment [1], the inhibition result is “Active”.
